Test results: patent US20100256137A1, “INDAZOLAMIDE DERIVATIVES” (MERCK PATENT GESELLSCHAFT MIT BESCHRANKTER HAFTUNG, priority 2007, published 2010)

biological target: T1, Recombinant human HSP90a (Homo sapiens, UniProt P07900); assay: HSP90 radioligand filter binding test ([3H]17AAG competition); conditions: [3H]17AAG 0.08 μM, HSP90 1.5 μg/assay, 22° C., 30 min, pH 7.0; read-out: IC50 (HSP90 inhibition)
T1 construct: host or cells: E. coli
Method: In the specific case, a radioligand filter binding test is used. The radioligand used here is tritium-labelled 17-allylaminogeldanamycin, [3H]17AAG. This filter binding test allows a targeted search for inhibitors which interfere with the ATP binding site.
HEPES filter buffer (50 mM HEPES, pH 7.0, 5 mM MgCl2, BSA 0.01%)
Multiscreen FB (1 μm) filter plate (Millipore, MAFBNOB 50).
The 96-well microtitre filter plates are firstly irrigated and coated with 0.1% of polyethylenimine.
The test is carried out under the following conditions:
Reaction temperature 22° C.
Reaction time: 30 min., shaking at 800 rpm
50 mM HEPES HCl, pH 7.0, 5 mM MgCl2, 0.01% (w/v) of BSA
At the end of the reaction, the supernatant in the filter plate is removed by suction with the aid of a vacuum manifold (Multiscreen Separation System, Millipore), and the filter is washed twice.
The filter plates are then measured in a beta counter (Microbeta, Wallac) with scintillator (Microscint 20, Packard).
“% of control” is determined from the “counts per minutes” values, and the IC-50 value of a compound is calculated therefrom.

IC50 [nM]	Compound
10 to 1000	Cc1cccc(Cc2n[nH]c3cc(O)c(C(=O)N4Cc5ccccc5C4)cc23)c1 [Compound A1, 5-(1,3-dihydroisoindol-2-ylcarbonyl)-3-(3-methylbenzyl)-6-hydroxy-1H-indazole]
10 to 1000	Cc1cccc(Cc2n[nH]c3cc(O)c(C(=O)N4CCc5ccccc5C4)cc23)c1 [Compound A2]
10 to 1000	COc1cccc(Cc2n[nH]c3cc(O)c(C(=O)N4Cc5ccccc5C4)cc23)c1 [Compound A3, 5-(1,3-Dihydroisoindol-2-ylcarbonyl)-3-(3-methoxybenzyl)-6-hydroxy-1H-indazole]
10 to 1000	CCCCc1n[nH]c2cc(O)c(C(=O)N3Cc4ccccc4C3)cc12 [Compound A4, 5-(1,3-Dihydroisoindol-2-ylcarbonyl)-3-butyl-6-hydroxy-1H-indazole]
10 to 1000	O=C(c1cc2c(Cc3cccc(Cl)c3)n[nH]c2cc1O)N1CCC(O)C1 (stereo not drawn) [Compound A5, 5-(3-Hydroxypyrrolidin-1-ylcarbonyl)-3-(3-chlorobenzyl)-6-hydroxy-1H-indazole]
10 to 1000	O=C(c1cc2c(Cc3cccc(Cl)c3)n[nH]c2cc1O)N1CC[C@@H](O)C1 [Compound A7, 5-((R)-3-Hydroxypyrrolidin-1-ylcarbonyl)-3-(3-chlorobenzyl)-6-hydroxy-1H-indazole]
10 to 1000	Cc1cccc(Cc2n[nH]c3cc(O)c(C(=O)N4CCOCC4)cc23)c1 [Compound A10]
10 to 1000	Cc1cccc(Cc2n[nH]c3cc(O)c(C(=O)N4CCc5ccccc54)cc23)c1 [Compound A11]
1000 to 10000	CCCCc1n[nH]c2cc(O)c(C(=O)N3Cc4ccc(Br)cc4C3)cc12 [Compound A14, 5-(5-Bromo-1,3-dihydroisoindol-2-ylcarbonyl)-3-butyl-6-hydroxy-1H-indazole]
10 to 1000	CCCc1n[nH]c2cc(O)c(C(=O)N3Cc4ccc(Br)cc4C3)cc12 [Compound A15, 5-(5-Bromo-1,3-dihydroisoindol-2-ylcarbonyl)-3-propyl-6-hydroxy-1H-indazole]
10 to 1000	Cc1cccc(Cc2n[nH]c3cc(O)c(C(=O)N4CCCC4)cc23)c1 [Compound A16, 5-(Pyrrolidin-1-ylcarbonyl)-3-(3-methylbenzyl)-6-hydroxy-1H-indazole]
10 to 1000	Cc1cccc(Cc2n[nH]c3cc(O)c(C(=O)N4CCN(C)CC4)cc23)c1 [Compound A17]
10 to 1000	O=C(c1cc2c(CC3CCCC3)n[nH]c2cc1O)N1Cc2ccccc2C1 [Compound A18, 5-(1,3-Dihydroisoindol-2-ylcarbonyl)-3-cyclopentylmethyl-6-hydroxy-1H-indazole]
10 to 1000	CCCc1n[nH]c2cc(O)c(C(=O)N3Cc4ccc(N5CCOCC5)cc4C3)cc12 [Compound A19]
10 to 1000	CCCc1n[nH]c2cc(O)c(C(=O)N3Cc4ccc(N5CCN(C)CC5)cc4C3)cc12 [Compound A20]
10 to 1000	CCCc1n[nH]c2cc(O)c(C(=O)N3Cc4ccc(OCCN(C)C)cc4C3)cc12 [Compound A26, [5-(2-dimethylaminoethoxy)-1,3-dihydroisoindol-2-yl]-(6-hydroxy-3-propyl-1H-indazol-5-yl)methanone]
10 to 1000	CC(C)CCc1n[nH]c2cc(O)c(C(=O)N3Cc4ccc(OCCN(C)C)cc4C3)cc12 [Compound A27, [5-(2-dimethylaminoethoxy)-1,3-dihydroisoindol-2-yl]-[6-hydroxy-3-(3-methylbutyl)-1H-indazol-5-yl]methanone]
10 to 1000	CN(C)CCOc1ccc2c(c1)CN(C(=O)c1cc3c(CC4CCCC4)n[nH]c3cc1O)C2 [Compound A28, (3-cyclopentylmethyl-6-hydroxy-1H-indazol-5-yl)-[5-(2-dimethylaminoethoxy)-1,3-dihydroisoindol-2-yl]methanone]

IC50 [nM]	Compound
10 to 1000	CN(C)CCOc1ccc2c(c1)CN(C(=O)c1cc3c(CC4CCCCC4)n[nH]c3cc1O)C2 [Compound A29, (3-cyclohexylmethyl-6-hydroxy-1H-indazol-5-yl)-[5-(2-dimethylaminoethoxy)-1,3-dihydroisoindol-2-yl]methanone]
10 to 1000	CC(C)CCc1n[nH]c2cc(O)c(C(=O)N3Cc4ccc(OC5CCN(C)CC5)cc4C3)cc12 [Compound A30, [6-hydroxy-3-(3-methylbutyl)-1H-indazol-5-yl]-[5-(1-methylpiperidin-4-yloxy)-1,3-dihydroisoindol-2-yl]methanone]
10 to 1000	CN1CCC(Oc2ccc3c(c2)CN(C(=O)c2cc4c(CC5CCCC5)n[nH]c4cc2O)C3)CC1 [Compound A31, (3-cyclopentylmethyl-6-hydroxy-1H-indazol-5-yl)-[5-(1-methylpiperidin-4-yloxy)-1,3-dihydroisoindol-2-yl]methanone]
10 to 1000	CN1CCC(Oc2ccc3c(c2)CN(C(=O)c2cc4c(CC5CCCCC5)n[nH]c4cc2O)C3)CC1 [Compound A32, (3-Cyclohexylmethyl-6-hydroxy-1H-indazol-5-yl)-[5-(1-methylpiperidin-4-yloxy)-1,3-dihydroisoindol-2-yl]methanone]
10 to 1000	CC(C)CCc1n[nH]c2cc(O)c(C(=O)N3Cc4ccc(OCCCN(C)C)cc4C3)cc12 [Compound A33, [5-(3-Dimethylaminopropoxy)-1,3-dihydroisoindol-2-yl]-[6-hydroxy-3-(3-methylbutyl)-1H-indazol-5-yl]methanone]
10 to 1000	CN(C)CCCOc1ccc2c(c1)CN(C(=O)c1cc3c(CC4CCCC4)n[nH]c3cc1O)C2 [Compound A34]
10 to 1000	CN(C)CCCOc1ccc2c(c1)CN(C(=O)c1cc3c(CC4CCCCC4)n[nH]c3cc1O)C2 [Compound A35, (3-Cyclohexylmethyl-6-hydroxy-1H-indazol-5-yl)-[5-(3-dimethylaminopropoxy)-1,3-dihydroisoindol-22-yl]methanone]
10 to 1000	CCN(C)CCOc1ccc2c(c1)CN(C(=O)c1cc3c(CCC(C)C)n[nH]c3cc1O)C2 [Compound A36, {5-[2-(Ethylmeethylamino)ethoxy]-1,3-dihydroisoindol-22-yl}-[6-hydroxy-3-(3-methylbutyl)-1H-indazol-5-yl]methanone]
10 to 1000	CCN(C)CCOc1ccc2c(c1)CN(C(=O)c1cc3c(CC4CCCC4)n[nH]c3cc1O)C2 [Compound A37, (3-Cyclopentylmethyl-6-hydroxy-1H-indazol-5-yl)-{5-[2-(ethylmethylamino)ethoxy]-1,3-dihydroisoindol-2-yl}methanone]
10 to 1000	CCN(C)CCOc1ccc2c(c1)CN(C(=O)c1cc3c(CC4CCCCC4)n[nH]c3cc1O)C2 [Compound A38, (3-Cyclohexylmethyl-6-hydroxy-1H-indazol-5-yl)-{5-[2-(ethylmethylamino)ethoxy]-1,3-dihydroisoindol-2-yl}methanone]
10 to 1000	CC(C)CCc1n[nH]c2cc(O)c(C(=O)N3Cc4ccc(OCCN5CCCCC5)cc4C3)cc12 [Compound A39, [6-Hydroxy-3-(3-methylbutyl)-1H-indazol-5-yl]-[5-(2-piperidin-1-ylethoxy)-1,3-dihydroisoindol-2-yl]methanone]
10 to 1000	O=C(c1cc2c(CC3CCCC3)n[nH]c2cc1O)N1Cc2ccc(OCCN3CCCCC3)cc2C1 [Compound A40, (3-Cyclopentylmethyl-6-hydroxy-1H-indazol-5-yl)-[5-(2-piperidin-1-ylethoxy)-1,3-dihydroisoindol-2-yl]methanone]
10 to 1000	O=C(c1cc2c(CC3CCCCC3)n[nH]c2cc1O)N1Cc2ccc(OCCN3CCCCC3)cc2C1 [Compound A41, (3-Cyclohexylmethyl-6-hydroxy-1H-indazol-5-yl)-[5-(2-piperidin-1-ylethoxy)-1,3-dihydroisoindol-2-yl]methanone]
10 to 1000	N#CCCCOc1ccc2c(c1)CN(C(=O)c1cc3c(CC4CCCC4)n[nH]c3cc1O)C2 [Compound A43, 4-[2-(3-Cyclopentylmethyl-6-hydroxy-1H-indazole-5-carbonyl)-2,3-dihydro-1H-isoindol-5-yloxy]butyronitrile]
10 to 1000	O=C(c1cc2c(CC3CCCCC3)n[nH]c2cc1O)N1Cc2ccc(OCCN3CCOCC3)cc2C1 [Compound A47, (3-Cyclohexylmethyl-6-hydroxy-1H-indazol-5-yl)-[5-(2-morpholin-4-ylethoxy)-1,3-dihydroisoindol-2-yl]methanone]
1000 to 10000	CCCc1n[nH]c2cc(O)c(C(=O)N3Cc4ccccc4C3C(=O)NCC)cc12 (stereo not drawn) [Compound A48, N-Ethyl-2-(6-hydroxy-3-propyl-1H-indazole-5-carbonyl)-2,3-dihydro-1H-isoindole-1-carboxamide]
10 to 1000	CC(C)Cc1n[nH]c2cc(O)c(C(=O)N3Cc4ccccc4C3)cc12 [Compound A49, (1,3-Dihydroisoindol-2-yl)(6-hydroxy-3-isobutyl-1H-indazol-5-yl)methanone]
10 to 1000	O=C(c1cc2c(CC3CCCCC3)n[nH]c2cc1O)N1Cc2ccccc2C1 [Compound A50, (3-Cyclohexylmethyl-6-hydroxy-1H-indazol-5-yl)-(1,3-dihydroisoindol-2-yl)methanone]
